# pIC50: −log10 of the molar value.
# Tests used:
# CDK4/CycD3 = CDK4/CycD3 (Homo sapiens, UniProt P11802); experiment: Determination of CDK activity (Caliper mobility shift, FAM-P8 peptide): CDK4; type: biochemical; conditions: CDK4/CycD3; read-out: CDK4 enzymatic inhibitory activity (IC50)
# In short: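 GST-CDK4(1-303)/GST-CycD3(1-292) was preincubated with compound for 10 min at room temperature, then FAM-P8 peptide and ATP were added; the reaction ran at 28 °C and was stopped with EDTA-containing stop buffer. Peptide conversion was read by Caliper mobility shift. A 10-point dilution series was fitted for IC50.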
# CDK6/cycD3 = CDK6/cycD3 (Homo sapiens, UniProt Q00534); experiment: Determination of CDK activity (Caliper mobility shift, FAM-P8 peptide): CDK6; type: biochemical; conditions: CDK6/cycD3; read-out: CDK6 enzymatic inhibitory activity (IC50)
# CDK6/cycD3, sequence (Q00534 whole entry): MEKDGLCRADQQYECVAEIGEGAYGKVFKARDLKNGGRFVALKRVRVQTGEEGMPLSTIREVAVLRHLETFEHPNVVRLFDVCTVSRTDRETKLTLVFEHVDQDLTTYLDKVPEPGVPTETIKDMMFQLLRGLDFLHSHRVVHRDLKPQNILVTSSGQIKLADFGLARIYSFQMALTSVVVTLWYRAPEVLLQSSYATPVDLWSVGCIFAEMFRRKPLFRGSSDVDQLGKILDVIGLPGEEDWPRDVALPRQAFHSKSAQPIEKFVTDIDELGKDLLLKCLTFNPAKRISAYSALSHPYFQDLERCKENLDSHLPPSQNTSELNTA
# CDK6/cycD3, sequence (P30281 whole entry partner): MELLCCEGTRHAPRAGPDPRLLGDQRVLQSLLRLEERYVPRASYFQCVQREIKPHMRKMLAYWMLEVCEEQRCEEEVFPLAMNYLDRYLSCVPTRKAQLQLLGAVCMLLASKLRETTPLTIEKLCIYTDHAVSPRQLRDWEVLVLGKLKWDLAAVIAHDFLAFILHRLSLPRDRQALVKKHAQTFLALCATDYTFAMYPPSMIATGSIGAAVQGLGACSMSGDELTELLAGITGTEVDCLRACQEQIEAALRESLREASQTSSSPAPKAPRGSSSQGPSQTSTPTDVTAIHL
# In short: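 GST-CDK6(1-326)/cycD3 with FAM-P8 peptide and ATP, after 10 min room-temperature enzyme–compound preincubation; reaction at 28 °C, then EDTA stop. Substrate conversion read by Caliper mobility shift; inhibition from no-compound and no-enzyme controls, IC50 fitted over 10-point dilution in DMSO.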
# CDK1/CyclinB = CDK1/CyclinB (Homo sapiens, UniProt P06493); experiment: Determination of CDK activity (Caliper mobility shift, FAM-P8 peptide): CDK1; type: biochemical; conditions: CDK1/CyclinB; read-out: CDK1 enzymatic inhibitory activity (IC50)
# CDK1/CyclinB, sequence (P06493 whole entry): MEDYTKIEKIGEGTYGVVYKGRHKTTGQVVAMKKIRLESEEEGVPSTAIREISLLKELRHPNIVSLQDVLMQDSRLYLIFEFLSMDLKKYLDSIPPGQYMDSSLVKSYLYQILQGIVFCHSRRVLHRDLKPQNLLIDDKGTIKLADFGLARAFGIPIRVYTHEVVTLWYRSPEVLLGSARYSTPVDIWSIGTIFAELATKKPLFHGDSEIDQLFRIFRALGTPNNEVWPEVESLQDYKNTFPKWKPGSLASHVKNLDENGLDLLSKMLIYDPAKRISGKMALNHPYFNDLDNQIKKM
# CDK1/CyclinB, sequence (P14635 whole entry partner): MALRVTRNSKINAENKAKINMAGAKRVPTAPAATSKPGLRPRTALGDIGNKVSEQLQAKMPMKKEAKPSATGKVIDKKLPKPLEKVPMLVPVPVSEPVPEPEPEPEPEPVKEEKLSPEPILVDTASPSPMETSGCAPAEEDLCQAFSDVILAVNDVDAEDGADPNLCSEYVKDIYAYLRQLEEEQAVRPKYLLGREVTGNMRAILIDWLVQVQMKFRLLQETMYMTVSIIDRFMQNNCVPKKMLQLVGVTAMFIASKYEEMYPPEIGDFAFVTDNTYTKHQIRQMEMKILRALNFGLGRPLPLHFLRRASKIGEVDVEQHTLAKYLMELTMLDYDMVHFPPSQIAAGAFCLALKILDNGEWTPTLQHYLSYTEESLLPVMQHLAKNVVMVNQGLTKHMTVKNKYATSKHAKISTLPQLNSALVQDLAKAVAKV
# CDK2/CycA2 = CDK2/CycA2 (Homo sapiens, UniProt P24941); experiment: Determination of CDK activity (Caliper mobility shift, FAM-P8 peptide): CDK2; type: biochemical; conditions: CDK2/CycA2; read-out: CDK2 enzymatic inhibitory activity (IC50)
# CDK7/CyclinH/MAT1 = CDK7/CyclinH/MAT1 (Homo sapiens, UniProt P50613); experiment: Determination of CDK activity (Caliper mobility shift, FAM-P8 peptide): CDK7; type: biochemical; conditions: CDK7/CyclinH/MAT1; read-out: CDK7 enzymatic inhibitory activity (IC50)
# CDK7/CyclinH/MAT1, sequence (P50613 whole entry): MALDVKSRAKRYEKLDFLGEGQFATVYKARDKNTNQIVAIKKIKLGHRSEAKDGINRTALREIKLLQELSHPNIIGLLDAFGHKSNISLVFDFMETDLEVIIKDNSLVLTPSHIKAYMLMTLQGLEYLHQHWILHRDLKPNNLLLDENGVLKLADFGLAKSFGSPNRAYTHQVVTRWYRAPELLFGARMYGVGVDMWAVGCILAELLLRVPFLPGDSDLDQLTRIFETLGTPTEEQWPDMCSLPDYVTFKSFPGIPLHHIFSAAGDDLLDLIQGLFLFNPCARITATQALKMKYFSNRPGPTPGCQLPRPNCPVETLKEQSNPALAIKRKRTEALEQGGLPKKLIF
# CDK7/CyclinH/MAT1, sequence (P51946 whole entry partner): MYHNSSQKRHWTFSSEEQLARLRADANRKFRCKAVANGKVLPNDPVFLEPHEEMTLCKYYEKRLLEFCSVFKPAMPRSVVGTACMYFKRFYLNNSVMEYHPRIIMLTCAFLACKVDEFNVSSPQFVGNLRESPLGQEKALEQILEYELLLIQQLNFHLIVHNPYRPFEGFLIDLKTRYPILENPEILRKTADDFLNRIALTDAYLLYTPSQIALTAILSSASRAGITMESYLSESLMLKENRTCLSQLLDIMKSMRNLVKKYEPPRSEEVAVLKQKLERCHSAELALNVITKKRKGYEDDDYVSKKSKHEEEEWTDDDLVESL
# CDK7/CyclinH/MAT1, sequence (P51948 whole entry partner): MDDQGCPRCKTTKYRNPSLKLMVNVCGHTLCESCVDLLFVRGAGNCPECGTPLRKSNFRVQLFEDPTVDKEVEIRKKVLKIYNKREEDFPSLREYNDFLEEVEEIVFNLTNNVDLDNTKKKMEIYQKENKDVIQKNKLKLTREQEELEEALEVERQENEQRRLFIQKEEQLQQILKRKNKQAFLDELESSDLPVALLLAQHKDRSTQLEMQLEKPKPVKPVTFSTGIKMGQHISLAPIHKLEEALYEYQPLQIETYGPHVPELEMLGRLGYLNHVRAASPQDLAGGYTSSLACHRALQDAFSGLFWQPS
# In short: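 His-CDK7/GST-MAT1/cyclin H preincubated with compound (10-point series) 10 min at room temperature, then reacted with FAM-P8 peptide plus ATP at 28 °C for a set time before stopping. Peptide conversion read by Caliper mobility shift; converted to % inhibition vs controls and IC50 fitted.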
# CDK9/cyclinTl = CDK9/cyclinTl (Homo sapiens, UniProt P50750); experiment: Determination of CDK activity (Caliper mobility shift, FAM-P8 peptide): CDK9; type: biochemical; conditions: CDK9/cyclinTl; read-out: CDK9 enzymatic inhibitory activity (IC50)
# CDK9/cyclinTl, sequence (P50750 whole entry): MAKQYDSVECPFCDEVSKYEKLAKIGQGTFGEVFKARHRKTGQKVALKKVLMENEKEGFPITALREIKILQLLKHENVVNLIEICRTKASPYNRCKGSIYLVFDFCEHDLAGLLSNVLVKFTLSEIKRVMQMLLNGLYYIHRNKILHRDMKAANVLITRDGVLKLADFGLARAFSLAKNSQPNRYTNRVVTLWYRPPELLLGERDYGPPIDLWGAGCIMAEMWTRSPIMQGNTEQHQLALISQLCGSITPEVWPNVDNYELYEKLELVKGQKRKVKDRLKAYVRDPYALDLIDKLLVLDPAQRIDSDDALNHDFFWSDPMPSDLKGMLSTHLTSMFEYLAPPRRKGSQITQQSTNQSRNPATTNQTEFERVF
# CDK9/cyclinTl, sequence (O60563 whole entry partner): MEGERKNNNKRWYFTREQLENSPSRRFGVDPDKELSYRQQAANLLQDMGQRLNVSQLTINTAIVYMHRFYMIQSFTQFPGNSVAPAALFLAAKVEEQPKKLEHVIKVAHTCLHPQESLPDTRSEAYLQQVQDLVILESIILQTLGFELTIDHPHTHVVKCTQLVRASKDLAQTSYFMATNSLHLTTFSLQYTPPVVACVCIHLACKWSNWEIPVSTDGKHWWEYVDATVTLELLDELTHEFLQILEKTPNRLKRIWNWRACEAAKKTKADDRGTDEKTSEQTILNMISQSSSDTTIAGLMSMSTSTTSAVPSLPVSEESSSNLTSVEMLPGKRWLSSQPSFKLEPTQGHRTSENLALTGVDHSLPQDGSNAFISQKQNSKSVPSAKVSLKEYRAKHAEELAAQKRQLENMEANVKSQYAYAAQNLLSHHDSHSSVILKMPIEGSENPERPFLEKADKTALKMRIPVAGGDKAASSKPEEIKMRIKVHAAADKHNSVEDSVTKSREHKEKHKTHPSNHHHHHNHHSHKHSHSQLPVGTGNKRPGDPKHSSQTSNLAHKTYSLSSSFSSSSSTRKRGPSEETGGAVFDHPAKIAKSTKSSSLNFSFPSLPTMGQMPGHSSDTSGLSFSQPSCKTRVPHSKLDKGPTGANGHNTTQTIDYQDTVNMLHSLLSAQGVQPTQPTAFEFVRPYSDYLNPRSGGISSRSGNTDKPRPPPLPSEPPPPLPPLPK
# [1] = Pharmacokinetic study in rats; type: in vivo, Sprague-Dawley rats; conditions: for F / Cmax / Tmax / clearance / half-life / AUC(0-t): male Sprague-Dawley rats; for F: iv 2 mg/kg and oral 5 mg/kg; for Cmax / Tmax / clearance / half-life / AUC(0-t): rat, plasma, study dosed iv 2 mg/kg and oral 5 mg/kg, route of this parameter not given; for AUC(0-t): read-out: AUC0-24 h
# Method: Healthy adult Sprague-Dawley rats, male, 7-10 weeks old, weighing 240-270 g, provided by Beijing Vital River Laboratory Animal Technology Co., Ltd., with an animal certificate number of 1140070278736.
# Test compounds of the invention: example 17, 33, 40, and 57.
# Intravenous administration solvent system of compounds: 10% (V/V) NMP and 90% (20% (V/V)) SBE-β-CD in 16.667 mM PBS with a concentration of 1.0 mg/mL.
# Oral administration solvent system of compounds: pure water system containing 0.1% hydroxyethyl cellulose and 0.5% Tween-80, with a concentration of 1 mg/mL.
# Intravenous administration: 3 male Sprague-Dawley rats of each test compound were injected intravenously after fasting overnight, with a dose of 2 mg/kg, and the dosing volume was 2 mL/kg. […]
# Before the administration, and after administration of 0.0833 (iv), 0.25, 0.5, 1, 2, 4, 8, 12, and 24 h, the jugular vein puncture (approximately 0.15 mL per time point) of each animal was performed by collecting blood from polypropylene tubes. All blood samples were transferred to pre-cooled EDTA-K2 test tubes or pre-cooled plastic microcentrifuge tubes containing 3 μL of 0.5 M EDTA-K2 as anticoagulant and placed on wet ice until centrifugation. Each collected blood was centrifuged at 4° C. for 15 minutes, and plasma was collected. All plasma would be stored in a freezer at about −80° C. until LCMS/MS detection.
# [2] = system: Human colorectal cancer Colo-205 cells; experiment: Pharmacodynamic study on mouse Colo-205 model (subcutaneous xenograft); type: in vivo, BALB/c nude mice; conditions: Colo-205 model, mesylate, 50 mg/kg PO × 28 days
# Excerpt: BALB/c nude mice, 6-8 weeks old, weighing 12-14 g, female, provided by Shanghai Lab Animal Research Center (Shanghai Xipuer-Beikai) with an animal certificate No: 2008001682093.
# The experiment was started after 3-7 days in the experimental environment when the animals arrived. Animals were housed in IVC (independent air supply system) cages (Four animals per cage) in SPF grade experimental animal facilities. Each cage animal information card contained the number of animals in the cage, sex, strain, receiving date, dosing schedule, experiment number, group and start date of the experiment. All cages, bedding, and drinking water were sterilized before use and were updated twice a week.
# 4.3 Tumor Cell Inoculation Method
# Human colorectal cancer Colo-205 cells (ATCC-CCL-222) were cultured in vitro in monolayer under the conditions of RPMI 1640 medium with 10% fetal bovine serum, 100 U/mL penicillin and 100 μg/mL streptomycin, and 37° C. 5% CO2 incubator. The passage was routinely digested with trypsin-EDTA twice a week. When the cell saturation was up to 80%-90% and reached the requirement, the cells were collected, counted and inoculated. 0.2 mL (5×10^6) Colo-205 cells were subcutaneously inoculated on the right back of each mouse, and mice were randomly grouped and dosed when the average tumor volume reached 163 mm^3.
# 4.14 mL of lactic acid was added to a large beaker containing 800 mL of deionized water, and the pH was adjusted to 4.0 with 5 N NaOH. Then the volume was fixed to 1,000 mL to obtain 50 mmol/L sodium lactate buffer.
# The subcutaneous tumor volume of nude mice was measured 2-3 times a week, and the mice were weighed, and the data were recorded.
# 4.6 Analysis and Evaluation
# Experimental evaluation index: the tumor growth inhibition rate TGI (%) or the relative tumor proliferation rate T/C (%) was used for evaluation, wherein T was the experimental group, and C was the vehicle group.
# [3] = rat plasma, at the dose of 10 mg/kg
# CDK4/CycD3, sequence (P11802 whole entry): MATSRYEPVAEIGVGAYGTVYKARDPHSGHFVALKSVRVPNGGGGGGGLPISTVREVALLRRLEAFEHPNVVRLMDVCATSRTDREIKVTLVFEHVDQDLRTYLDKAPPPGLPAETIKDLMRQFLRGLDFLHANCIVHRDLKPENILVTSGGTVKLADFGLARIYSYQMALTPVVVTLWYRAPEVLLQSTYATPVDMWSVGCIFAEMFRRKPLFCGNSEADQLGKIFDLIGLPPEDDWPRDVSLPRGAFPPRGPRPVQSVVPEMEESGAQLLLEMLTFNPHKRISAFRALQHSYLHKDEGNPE
# CDK4/CycD3, sequence (P30281 whole entry partner): as the sequence (P30281 whole entry partner) above
pIC50 (CDK4/CycD3),pIC50 (CDK6/cycD3),pIC50 (CDK1/CyclinB),pIC50 (CDK2/CycA2),pIC50 (CDK7/CyclinH/MAT1),pIC50 (CDK9/cyclinTl),F [1],Cmax [1],Tmax [1],clearance [1],half-life [1],AUC(0-t) [1],"clearance in rat plasma (in words) [1, 3]","half-life in rat plasma (in words) [1, 3]","level of exposure at 24 h in rat plasma (in words) [1, 3]",Structure (SMILES),Tumor volume (day 0) ([2]; baseline at start of dosing),Tumor volume (day 28) [2],TGI tumor growth inhibition rate ([2]; day 28)
> 7.00,> 7.00,> 7.00,> 7.00,6.00 to 6.30,> 7.00,13.3%,12.9 ng/mL,4 h,72.8 mL/min/kg,11.9 h,132 ng·h/mL,–,–,–,"CCN1CCC(C(O)c2ccc(Nc3ncc(F)c(-c4cc(F)c5nc(C)n(C(C)C)c5c4)n3)nc2)CC1 (single isomer, unassigned) [Example 40, (R or S)-(1-ethylpiperidin-4-yl)(6-((5-fluoro-4-(4-fluoro-1-isopropyl-2-methyl-1H-benzo [d]imidazol-6-yl)pyrimidin-2-yl)amino)pyridin-3-yl) methanol]",–,–,–
–,–,–,–,–,–,–,–,–,–,–,–,–,–,–,"CCN1CCN(Cc2ccc(Nc3ncc(F)c(-c4cc(F)c5nc(C)n(C(C)C)c5c4)n3)nc2)CC1 [Abemaciclib, reference compound]",198 mm^3,749 mm^3,74.5%
> 7.00,> 7.00,6.30 to 7.00,> 7.00,5.00 to 6.00,> 7.00,43.7%,161 ng/mL,8 h,12.1 mL/min/kg,8.19 h,2570 ng·h/mL,lower clearance,longer half-life,high level of exposure,"C=C(c1ccc(Nc2ncc(F)c(-c3cc(F)c4nc(C)n(C(C)C)c4c3)n2)nc1)C1CCN(CC)CC1 [Example 33, N-(5-(1-(1-ethylpiperidin-4-yl)vinyl)pyridin-2-yl)-5-fluoro-4-(4-fluoro-1-isopropyl-2-methyl-1H-benzo[d]imidazol-6-yl) pyrimidin-2-amine]",–,–,–

# Reference: patent US11179391B2, “Compound with kinase inhibitory activity and preparation method and use thereof” (priority 2017, dated 2021)
